Here are results for 2 compounds from article PMC3433414, “Oral Administration of the Pimelic Diphenylamide HDAC Inhibitor HDACi 4b Is Unsuitable for Chronic Inhibition of HDAC Activity in the CNS In Vivo” (PLoS ONE, 2012).

Molecules are shown by their SMILES. ≈ marks a conversion by molar mass, not a printed value. Where two headings read alike, the source gives them in different places. Some results are limits rather than exact numbers.

A short description of data set [1]: Solubility in water, formulations and DMSO. The data set is classed as physicochemical. As to the method: Thomas and colleagues reported that a solution of 4b at 1 mg/mL was previously obtained using this procedure. […] We therefore prepared both TFA and hydrochloride (HCl) salts of 4b to establish whether they could offer improved solubility. Neither salt form of 4b was particularly soluble in water (<1 mg/ml). […] A study of the stability of the TFA salt also raised another more worrying issue in the use of 2-hydroxypropyl-β-cyclodextrin–complexed 4b salts for potential in vivo studies. […] The 4b. TFA cyclodextrin suspension targeted at 1 mg/ml with heating gave an initial (day 1) measured value of 0.75 mg/ml total 4b, with only 0.27 mg/mL solubilised as quantified in the sample after filtration. The lower than expected initial quantification of 4b was most likely due to the TFA salt rapidly degrading upon heating. Indeed, we always found the presence of the cyclised benzimidazole conversion product, named throughout as product C1, in the salt formulations even at t = 0 after preparation. Furthermore, the suspension was not stable upon standing in the dark with gentle shaking at room temperature, with a further 28% decrease observed in parent (4b) concentration on day 7 analysis, compared to day 1.
As a consequence de novo formulation attempts were made with the stable free base form. After several trials with different excipients, we were able to reach a soluble formulation preparation of 1 mg/ml 4b in 2% N-methyl-2-pyrollidone, 18% polyethylene glycol 400, 10% solutol HS-15 and 70% (1% Lutrol F68 in water), a vehicle which we have previously used without any adverse effects in R6/2 model chronic efficacy trials, but is unlikely to be palatable to mice in drinking water. With this concentration, a single oral gavage dose will result in a maximum of 10 mg/kg dose level (assuming a maximum dose volume of […]), considerably lower than that estimated to have been used by Thomas et al (150 mg/kg day in drinking water). In an attempt to replicate the original dose level as close as possible, it became necessary to formulate the test compound in suspension. We achieved a stable homogeneous suspension of free base 4b up to 100 mg/ml in 0.5% carboxymethylcellulose (medium viscosity) in reverse osmosis deionized (RODI) water. This suspension was used to evaluate the oral pharmacokinetics of 4b in mice. […]

The nature of data set [2]: Hepatic microsomal stability. The data set is classed as in vitro ADME, mouse. The following applies: for predicted in vivo plasma clearance: from mouse microsomal half-life; for half-life at 1 µM: pooled hepatic microsomes, pH 7.4, mouse. The procedure: Incubations of test compounds (1 µM initial concentration, n = 2) were carried out with pooled hepatic microsomes (0.25 mg protein/mL in 0.1 M phosphate buffer pH 7.4). NADPH (1 mM) was added to initiate the reactions. The incubations were performed at 37°C. Samples (100 µL) were taken from the incubation at 0, 5, 10, 20 and 40 min and added to 100 µL of acetonitrile containing carbamazepine as analytical internal standard, to terminate the reaction. Samples were centrifuged and the supernatant fractions analysed by LC-MS/MS. The instrument responses (i.e. chromatographic peak heights), normalized by internal standard response were referenced to the zero time-point samples (as 100%) in order to determine the percentage of compound remaining.
Ln plots of the % remaining, for each compound, were used to determine the half-life for the microsomal incubations.
Half-life values were calculated from the relationship. [drawing 2] where λ was the slope of the Ln concentration vs time curve.
The in vitro intrinsic clearance, CLint (µL/min/mg microsomal protein), was calculated using the following formula: [drawing 3]
When quantification was required, calibration standards for parent compound and metabolites were prepared in control hepatic microsomes and extracted and analysed as described for the study samples. Quantification of parent compound or metabolite was by extrapolation from the calibration line.

Data set [3] can be described thus: Cerep binding, antagonist radioligand. To be noted: 10 μM. From the text:
(§1) In addition to the HDAC profiling performed, we also queried 4b for any apparent potential off-target effects, which could complicate any finding of efficacy or adverse events in vivo due to ‘polypharmacy’. This was accomplished by screening against a ‘diversity panel’ of 72 binding and 29 enzyme assays, comprised of roughly equal numbers of selective central and peripheral therapeutically relevant targets (Cerep Diversity Profile). This panel included representative targets from diverse enzyme families, G protein coupled receptors, steroid nuclear receptors, voltage- and ligand-gated ion channels. While not totally inclusive, it is a useful tool for discovery compounds to assess their viability as proof of concept molecules to specifically query a particular target. 4b was initially screened at 10 µM in duplicate. The full set of results is provided as Table S1. […] This clean in vitro profile was considered acceptable to proceed to ADME and pharmacokinetic studies.

For the next data set, the target named is T1, 5‐HT transporter (h) (Homo sapiens, UniProt P31645).
T1 construct: purchased Cerep (Diversity Profile)
The data set is described as follows: Cerep binding, antagonist radioligand. To be noted: read-out: % inhibition of control specific binding.
Description: as §1

Another data set deals with T2, A1 (h) (Homo sapiens, UniProt P30542).
T2 construct: purchased Cerep (Diversity Profile)
The data set is described as follows: Cerep binding, antagonist radioligand. To be noted: read-out: % inhibition of control specific binding.
Description: as §1

Data set [4] relates to Ca2+ channel (L, verapamil site) (phenylalkylamine). The data set is described as follows: Cerep binding, antagonist radioligand. The following applies: 10 μM.
Description: as §1

For the next data set, the system named is Cl‐channel (GABA‐gated). The data set is described as follows: Cerep binding, antagonist radioligand. To be noted: 10 μM.
Description: as §1

A further data set deals with T3, D2S (h) (Homo sapiens, UniProt P14416).
T3 construct: purchased Cerep (Diversity Profile)
The data set is described as follows: Cerep binding, antagonist radioligand. To be noted: read-out: % inhibition of control specific binding.
Description: as §1

For another data set, the target named is T4, D3 (h) (Homo sapiens, UniProt P35462).
T4 construct: purchased Cerep (Diversity Profile)
Description: Cerep binding, antagonist radioligand. The following applies: read-out: % inhibition of control specific binding.
Description: as §1

For another data set, the target named is T5, D4.4 (h) (Homo sapiens, UniProt P21917).
T5 construct: purchased Cerep (Diversity Profile)
The data set is described as follows: Cerep binding, antagonist radioligand. To be noted: read-out: % inhibition of control specific binding.
Description: as §1

A further data set has as its target T6, H1 (h) (Homo sapiens, UniProt P35367).
T6 construct: purchased Cerep (Diversity Profile)
Description: Cerep binding, antagonist radioligand. The following applies: read-out: % inhibition of control specific binding.
Description: as §1

Another data set relates to I2. Description: Cerep binding, antagonist radioligand. To be noted: 10 μM.
Description: as §1

In another data set the test system is KV channel. Description: Cerep binding, antagonist radioligand. The following applies: 10 μM.
Description: as §1

Another data set has as its target T7, NK3 (h) (Homo sapiens, UniProt P29371).
T7 construct: purchased Cerep (Diversity Profile)
Description: Cerep binding, antagonist radioligand. The following applies: read-out: % inhibition of control specific binding.
Description: as §1

For data set [5], the target named is T8, choline transporter (CHT1) (h) (Homo sapiens, UniProt Q9GZV3).
T8 construct: purchased Cerep (Diversity Profile)
Description: Cerep binding, antagonist radioligand. The following applies: read-out: % inhibition of control specific binding.
Description: as §1

Another data set deals with T9, dopamine transporter (h) (Homo sapiens, UniProt Q01959).
T9 construct: purchased Cerep (Diversity Profile)
Description: Cerep binding, antagonist radioligand. To be noted: read-out: % inhibition of control specific binding.
Description: as §1

For data set [6], the target named is T10, norepinephrine transporter (h) (Homo sapiens, UniProt P23975).
T10 construct: purchased Cerep (Diversity Profile)
Description: Cerep binding, antagonist radioligand. To be noted: read-out: % inhibition of control specific binding.
Description: as §1

The mark [7] stands for this setting: mouse, 1 µM, with NADPH, read-out: in vitro half-life in hepatic microsomes.

T2 sequence (P30542 whole entry): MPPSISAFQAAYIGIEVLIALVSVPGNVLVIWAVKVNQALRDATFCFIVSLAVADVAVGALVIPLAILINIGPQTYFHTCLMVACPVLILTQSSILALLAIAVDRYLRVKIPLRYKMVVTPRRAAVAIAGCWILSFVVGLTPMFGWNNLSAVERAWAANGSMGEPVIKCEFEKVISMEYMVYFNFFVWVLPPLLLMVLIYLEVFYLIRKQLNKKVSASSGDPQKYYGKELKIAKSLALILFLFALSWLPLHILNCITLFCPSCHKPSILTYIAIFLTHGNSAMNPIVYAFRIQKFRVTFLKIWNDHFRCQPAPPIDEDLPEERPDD
T7 sequence (P29371 whole entry): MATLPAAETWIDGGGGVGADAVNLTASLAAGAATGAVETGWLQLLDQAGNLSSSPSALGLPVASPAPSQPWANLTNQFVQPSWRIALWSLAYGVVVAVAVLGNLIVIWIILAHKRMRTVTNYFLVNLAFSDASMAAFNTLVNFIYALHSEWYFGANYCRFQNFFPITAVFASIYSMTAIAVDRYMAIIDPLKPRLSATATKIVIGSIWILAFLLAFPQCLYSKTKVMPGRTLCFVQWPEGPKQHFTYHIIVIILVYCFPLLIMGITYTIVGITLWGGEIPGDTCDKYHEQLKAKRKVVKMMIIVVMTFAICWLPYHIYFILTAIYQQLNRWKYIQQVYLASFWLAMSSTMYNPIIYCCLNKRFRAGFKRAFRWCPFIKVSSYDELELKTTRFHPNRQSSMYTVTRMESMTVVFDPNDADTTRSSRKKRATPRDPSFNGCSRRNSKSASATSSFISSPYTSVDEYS
T5 sequence (P21917 whole entry): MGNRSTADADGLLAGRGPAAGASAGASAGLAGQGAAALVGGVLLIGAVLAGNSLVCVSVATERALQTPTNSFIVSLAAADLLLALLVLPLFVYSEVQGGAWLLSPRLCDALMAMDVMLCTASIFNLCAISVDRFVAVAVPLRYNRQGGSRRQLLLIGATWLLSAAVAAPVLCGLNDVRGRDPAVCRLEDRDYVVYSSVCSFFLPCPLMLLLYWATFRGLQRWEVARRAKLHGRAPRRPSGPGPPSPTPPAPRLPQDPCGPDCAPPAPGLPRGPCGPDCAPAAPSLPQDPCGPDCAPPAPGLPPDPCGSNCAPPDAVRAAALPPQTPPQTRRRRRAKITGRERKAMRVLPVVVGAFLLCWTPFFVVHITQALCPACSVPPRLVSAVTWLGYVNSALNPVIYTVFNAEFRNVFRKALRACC
T10 sequence (P23975 whole entry): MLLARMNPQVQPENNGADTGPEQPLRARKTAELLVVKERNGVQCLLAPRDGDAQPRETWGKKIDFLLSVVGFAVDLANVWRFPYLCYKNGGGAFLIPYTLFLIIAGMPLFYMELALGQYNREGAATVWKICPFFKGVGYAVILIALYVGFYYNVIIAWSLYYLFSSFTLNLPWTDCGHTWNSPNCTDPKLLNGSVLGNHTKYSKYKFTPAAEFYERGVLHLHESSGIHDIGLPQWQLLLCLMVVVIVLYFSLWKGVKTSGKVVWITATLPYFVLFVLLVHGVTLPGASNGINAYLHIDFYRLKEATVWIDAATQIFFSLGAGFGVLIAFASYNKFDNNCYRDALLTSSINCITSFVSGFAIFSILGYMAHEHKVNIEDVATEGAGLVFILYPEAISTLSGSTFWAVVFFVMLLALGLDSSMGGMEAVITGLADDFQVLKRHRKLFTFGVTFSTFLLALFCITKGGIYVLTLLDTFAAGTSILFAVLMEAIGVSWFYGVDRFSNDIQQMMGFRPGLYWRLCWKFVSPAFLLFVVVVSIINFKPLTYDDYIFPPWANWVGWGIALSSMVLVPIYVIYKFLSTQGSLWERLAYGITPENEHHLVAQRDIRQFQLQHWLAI
T6 sequence (P35367 whole entry): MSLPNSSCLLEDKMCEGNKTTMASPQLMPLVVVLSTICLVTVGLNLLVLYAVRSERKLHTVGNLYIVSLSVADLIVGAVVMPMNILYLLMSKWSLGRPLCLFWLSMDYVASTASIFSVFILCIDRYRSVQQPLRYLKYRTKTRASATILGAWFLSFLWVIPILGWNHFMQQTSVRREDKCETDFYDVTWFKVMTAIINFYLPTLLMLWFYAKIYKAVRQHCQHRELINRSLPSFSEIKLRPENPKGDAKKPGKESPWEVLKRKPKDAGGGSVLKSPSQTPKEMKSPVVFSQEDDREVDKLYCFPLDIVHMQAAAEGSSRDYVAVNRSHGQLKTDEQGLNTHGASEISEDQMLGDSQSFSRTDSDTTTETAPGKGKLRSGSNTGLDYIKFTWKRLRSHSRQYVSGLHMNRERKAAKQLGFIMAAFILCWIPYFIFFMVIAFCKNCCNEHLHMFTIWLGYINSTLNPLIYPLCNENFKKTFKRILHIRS
T4 sequence (P35462 whole entry): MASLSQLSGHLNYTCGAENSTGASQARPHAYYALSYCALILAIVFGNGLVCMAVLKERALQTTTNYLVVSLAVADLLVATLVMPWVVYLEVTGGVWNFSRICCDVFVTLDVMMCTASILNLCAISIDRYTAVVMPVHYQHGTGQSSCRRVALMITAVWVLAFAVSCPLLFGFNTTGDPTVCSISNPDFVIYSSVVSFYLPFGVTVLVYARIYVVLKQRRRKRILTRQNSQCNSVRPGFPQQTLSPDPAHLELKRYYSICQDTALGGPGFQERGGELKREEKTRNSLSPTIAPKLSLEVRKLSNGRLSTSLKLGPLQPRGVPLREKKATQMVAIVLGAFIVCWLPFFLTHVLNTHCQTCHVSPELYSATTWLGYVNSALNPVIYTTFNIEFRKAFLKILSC
T3 sequence (P14416 1-414 isoform P14416-2): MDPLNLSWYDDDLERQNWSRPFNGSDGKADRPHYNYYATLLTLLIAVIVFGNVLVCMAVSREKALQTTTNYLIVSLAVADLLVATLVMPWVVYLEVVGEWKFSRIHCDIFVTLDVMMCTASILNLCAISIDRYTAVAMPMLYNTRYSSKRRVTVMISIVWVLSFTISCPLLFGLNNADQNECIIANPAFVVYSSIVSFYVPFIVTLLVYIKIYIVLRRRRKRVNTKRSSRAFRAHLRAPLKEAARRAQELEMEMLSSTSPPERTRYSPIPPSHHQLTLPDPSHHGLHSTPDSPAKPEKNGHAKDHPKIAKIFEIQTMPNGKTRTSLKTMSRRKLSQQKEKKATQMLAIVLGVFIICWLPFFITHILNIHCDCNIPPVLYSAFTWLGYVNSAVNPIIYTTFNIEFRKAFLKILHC
T8 sequence (Q9GZV3 whole entry): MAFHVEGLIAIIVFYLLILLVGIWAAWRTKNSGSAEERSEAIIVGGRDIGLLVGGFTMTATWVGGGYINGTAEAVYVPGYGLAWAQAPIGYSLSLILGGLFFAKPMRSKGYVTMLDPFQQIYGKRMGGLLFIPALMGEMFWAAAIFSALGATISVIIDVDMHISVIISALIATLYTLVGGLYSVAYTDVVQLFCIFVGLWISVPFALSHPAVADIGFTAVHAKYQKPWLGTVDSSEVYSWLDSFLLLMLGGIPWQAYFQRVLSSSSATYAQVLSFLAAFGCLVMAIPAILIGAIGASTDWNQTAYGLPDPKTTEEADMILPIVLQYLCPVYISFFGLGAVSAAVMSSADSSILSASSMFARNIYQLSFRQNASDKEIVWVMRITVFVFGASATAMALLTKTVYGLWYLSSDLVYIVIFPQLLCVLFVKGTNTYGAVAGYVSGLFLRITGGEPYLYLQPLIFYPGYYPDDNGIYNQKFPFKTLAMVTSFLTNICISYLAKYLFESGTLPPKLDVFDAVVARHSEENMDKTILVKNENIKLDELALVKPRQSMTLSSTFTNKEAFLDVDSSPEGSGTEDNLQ
T1 sequence (P31645 whole entry): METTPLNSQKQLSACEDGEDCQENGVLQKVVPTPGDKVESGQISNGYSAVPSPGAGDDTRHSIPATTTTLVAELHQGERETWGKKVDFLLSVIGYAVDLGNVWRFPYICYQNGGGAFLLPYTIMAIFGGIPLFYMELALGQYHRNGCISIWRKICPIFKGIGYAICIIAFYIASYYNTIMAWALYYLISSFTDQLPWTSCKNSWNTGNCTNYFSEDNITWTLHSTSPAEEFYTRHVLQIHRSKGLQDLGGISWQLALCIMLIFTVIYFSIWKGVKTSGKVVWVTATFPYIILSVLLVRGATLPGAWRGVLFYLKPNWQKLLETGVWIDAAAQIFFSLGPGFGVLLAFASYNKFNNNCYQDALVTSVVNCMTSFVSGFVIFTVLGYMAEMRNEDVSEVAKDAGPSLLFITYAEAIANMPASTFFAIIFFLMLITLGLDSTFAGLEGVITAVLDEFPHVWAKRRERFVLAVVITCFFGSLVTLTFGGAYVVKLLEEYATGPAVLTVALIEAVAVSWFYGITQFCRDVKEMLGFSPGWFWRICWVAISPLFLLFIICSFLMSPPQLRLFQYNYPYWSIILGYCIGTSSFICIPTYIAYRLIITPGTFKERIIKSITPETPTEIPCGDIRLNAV
T9 sequence (Q01959 whole entry): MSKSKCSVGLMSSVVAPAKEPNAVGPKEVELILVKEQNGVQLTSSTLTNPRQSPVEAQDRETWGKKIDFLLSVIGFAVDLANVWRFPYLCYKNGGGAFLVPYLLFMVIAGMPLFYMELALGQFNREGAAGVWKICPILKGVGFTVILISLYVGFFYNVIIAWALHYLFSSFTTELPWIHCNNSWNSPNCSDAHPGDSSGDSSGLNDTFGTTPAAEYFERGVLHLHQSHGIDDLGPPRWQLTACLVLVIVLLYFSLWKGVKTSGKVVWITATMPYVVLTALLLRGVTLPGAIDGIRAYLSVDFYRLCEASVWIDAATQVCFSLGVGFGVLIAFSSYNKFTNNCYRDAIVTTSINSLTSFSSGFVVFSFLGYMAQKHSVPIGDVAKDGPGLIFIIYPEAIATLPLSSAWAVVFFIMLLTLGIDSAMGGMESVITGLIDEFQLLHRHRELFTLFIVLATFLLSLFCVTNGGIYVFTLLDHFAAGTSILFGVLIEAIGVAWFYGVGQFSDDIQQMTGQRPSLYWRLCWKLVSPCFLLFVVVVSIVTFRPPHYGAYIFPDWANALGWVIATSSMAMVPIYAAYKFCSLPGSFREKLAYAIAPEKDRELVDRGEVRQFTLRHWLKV

Take `Nc1ccccc1NC(=O)CCCCCC(=O)Nc1ccccc1` [Compound 4b]: the solubility in data set [1] (NMP/PEG400/Solutol HS-15/Lutrol F68 aqueous vehicle, aqueous with cosolvent or surfactant or cyclodextrin, free base, 2% N-methyl-2-pyrollidone, 18% polyethylene glycol 400, 10% solutol HS-15, 70% (1% Lutrol F68 in water), read-out: soluble formulation concentration) came to 1 mg/mL (≈ 3.07 mM). Besides, the “4b dissolved (filtrate of suspension)” value in data set [1] (free base, 2-hydroxypropyl-β-cyclodextrin 1∶5 molar ratio, target 1 mg/mL) stood at 0.1 mg/mL. Besides, the solubility in water result in data set [1] (neutral pH, free base) is “highly insoluble”. The “solubility in DMSO” value in data set [1] (prepared at 1 mg/ml) is reported as “soluble”. Further, in [2] (after 40 min incubation with mouse hepatic microsomes), the parent remaining is on record as 16%. Moreover, the “predicted in vivo plasma clearance” value in data set [2] is recorded as 2.6 L/h/kg. The “predicted clearance as share of liver plasma flow” value in [2] (mouse) is “approximately 87%”. Further, the half-life (commonly how long it takes for the measured level to halve) at 1 µM in [2] (setting [7]) is ~20 min. Besides, the “% inhibition of control specific binding” value in data set [3] is 0%; in [4] it was 7%; in the data set on Cl‐channel (GABA‐gated) it was 0%; in the data set on I2, 5%; in the data set with KV channel, 2%. Moreover, the inhibition (commonly the change of the read-out against control, counted positive when it falls) at 10 µM is 5% at 5‐HT transporter (h); 7% at A1 (h); 3% at D2S (h); 10% at D3 (h); 13% on D4.4 (h); 10% on H1 (h). The inhibition at 10 µM on NK3 (h) worked out at 0%; in data set [5], 14%; on dopamine transporter (h), 2%; in [6] it was 0%.

For the compound `O=C(CCCCCc1nc2ccccc2[nH]1)Nc1ccccc1` [Compound C1, 6-(1-H-benzo[d]imidazol-2-yl)-N-phenylhexanamide], in [1], the “solubility in aqueous media” value is “readily soluble”. In [2] (all incubations with 4b, below the limit of quantification), the “concentration of C1 in incubations with 4b” value is reported as < 0.1 µM. Moreover, in [2], the “predicted in vivo plasma clearance” value is on record as > 2.89 L/h/kg. Further, the half-life at 1 µM is < 5 min in data set [2] (setting [7]) and 7 min in data set [2] (mouse, without NADPH, read-out: in vitro half-life in liver microsomes). For the same compound, the “% inhibition of control specific binding” value in data set [3] worked out at 13%; in [4], 19%; in the data set on Cl‐channel (GABA‐gated), 0%; in the data set with I2, 73%; in the data set on KV channel, 3%. The inhibition at 10 µM on 5‐HT transporter (h) (10 μM) was 5%; at A1 (h) (10 μM), 9%; on D2S (h) (10 μM), 2%; at D3 (h) (10 μM), 11%; on D4.4 (h) (10 μM), 31%; at H1 (h) (10 μM) it was 45%. In addition, the inhibition at 10 µM at NK3 (h) (10 μM) turned out to be 4%; in [5] (10 μM) it was 40%; on dopamine transporter (h) (10 μM) it was 23%; in [6] (10 μM), 30%.
